This note sets out measurements from BindingDB's records for PubMed 31759729 (University of Electronic Science and Technology of China, 2020).

Structures are written as SMILES.

This experiment concerns the target cGMP-specific 3',5'-cyclic phosphodiesterase (Homo sapiens, UniProt O76074). Briefly: Inhibition of PDE-5A (unknown origin).

For the molecule `CC(C)=CCC1=C(O)c2c(occ(-c3ccc(O[N+](=O)[O-])cc3)c2=O)C2C=CC(C)(C)OC12` (configuration not stated), half-maximal inhibition (IC50) was put at 0.5 µM.

For `CC(C)=CCc1c(O)c2c(c3c1OC(C)(C)C=C3)CC=C(c1ccc3c(c1)OCCO3)C2=O`, the IC50 (as a rule, the concentration that gives 50% inhibition) turned out to be 2.7 µM.
